Results as given in PubChem BioAssay (NCI).
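1) Cells in 96-well plates. 2) Compound, 48 h, 5 concentrations. 3) Linear interpolation between surrounding doses. 4) Unreached endpoint = highest concentration. GI50 is the concentration that inhibits growth by half. TGI marks complete inhibition of growth.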

Columns and labels:
Assay in all cases: NCI anticancer screen, dose series, 48 h
HCT-116 colon = system: HCT-116 colon
A549 NSCLC = system: A549 NSCLC
SF-539 CNS = system: SF-539 CNS
ACHN renal = system: ACHN renal
EKVX NSCLC = system: EKVX NSCLC
NCI-H522 lung = system: NCI-H522 lung
UACC-62 melanoma = system: UACC-62 melanoma
RXF 393 renal = system: RXF 393 renal
MOLT-4 leukemia = system: MOLT-4 leukemia
SK-MEL-2 melanoma = system: SK-MEL-2 melanoma

In the case of `COc1cc2c(cc1OC)[C@H]1C(=O)c3cc4c(cc3[C@H]1N(C)C2=O)OCO4`, the TGI (HCT-116 colon) was greater than 100 µM, the TGI (A549 NSCLC) was greater than 100 µM and the TGI (SF-539 CNS) was greater than 77.8 µM. It also gave a TGI (ACHN renal) greater than 100 µM, a TGI (EKVX NSCLC) greater than 100 µM and a TGI (NCI-H522 lung) greater than 75 µM. For the same compound, the TGI (UACC-62 melanoma) was greater than 100 µM, the TGI (RXF 393 renal) was greater than 100 µM and the TGI (MOLT-4 leukemia) was 5.7 µM. It also gave a TGI (SK-MEL-2 melanoma) greater than 100 µM.
`CN1CCN(C(=S)SCN2C(=O)c3ccccc3S2(=O)=O)CC1` was tested, and the GI50 (HCT-116 colon) was 12.8 µM, the TGI (HCT-116 colon) was 44.9 µM and the GI50 (A549 NSCLC) was 28.3 µM. For the same compound, the TGI (A549 NSCLC) was greater than 100 µM, the GI50 (SF-539 CNS) was 36.8 µM and the TGI (SF-539 CNS) was greater than 100 µM. It also gave a GI50 (ACHN renal) of 41.3 µM, a TGI (ACHN renal) greater than 100 µM and a GI50 (EKVX NSCLC) greater than 100 µM. For the same compound, the TGI (EKVX NSCLC) was greater than 100 µM, the GI50 (NCI-H522 lung) was 7.26 µM and the TGI (NCI-H522 lung) was 34.1 µM. It also gave a GI50 (UACC-62 melanoma) of 18.8 µM, a TGI (UACC-62 melanoma) of 54.1 µM and a GI50 (RXF 393 renal) of 39.5 µM. For the same compound, the TGI (RXF 393 renal) was greater than 100 µM, the GI50 (MOLT-4 leukemia) was 5.08 µM and the TGI (MOLT-4 leukemia) was 25.7 µM. For the same compound, the GI50 (SK-MEL-2 melanoma) was greater than 100 µM and the TGI (SK-MEL-2 melanoma) was greater than 100 µM.
Compound `CN1CC(C(=O)NC2(C)OC3(O)C4CCCN4C(=O)C(Cc4ccccc4)N3C2=O)C=C2c3cccc4[nH]cc(c34)CC21` (stereo not given) has a TGI (HCT-116 colon) of 48.7 µM, a TGI (A549 NSCLC) greater than 100 µM and a TGI (SF-539 CNS) of 39 µM. For the same compound, the TGI (ACHN renal) was 55.1 µM, the TGI (EKVX NSCLC) was greater than 100 µM and the TGI (NCI-H522 lung) was 33.3 µM. The TGI (UACC-62 melanoma) was 34.7 µM, the TGI (RXF 393 renal) was 40.5 µM and the TGI (MOLT-4 leukemia) was greater than 100 µM. The TGI (SK-MEL-2 melanoma) was 35.1 µM.
`O=c1[nH]c2cc(O)ccc2n2cc3c(F)cccc3c12` was tested, and the GI50 (HCT-116 colon) was 0.881 µM, the TGI (HCT-116 colon) was greater than 100 µM and the GI50 (A549 NSCLC) was 1.31 µM. For the same compound, the TGI (A549 NSCLC) was greater than 100 µM, the GI50 (SF-539 CNS) was 1.3 µM and the TGI (SF-539 CNS) was greater than 100 µM. For the same compound, the GI50 (ACHN renal) was 2.04 µM, the TGI (ACHN renal) was greater than 100 µM and the GI50 (EKVX NSCLC) was 4.69 µM. It also gave a TGI (EKVX NSCLC) greater than 100 µM, a GI50 (NCI-H522 lung) of 0.785 µM and a TGI (NCI-H522 lung) greater than 100 µM. It also gave a GI50 (UACC-62 melanoma) of 1.29 µM, a TGI (UACC-62 melanoma) greater than 100 µM and a GI50 (RXF 393 renal) of 0.969 µM. It also gave a TGI (RXF 393 renal) greater than 100 µM, a GI50 (MOLT-4 leukemia) of 2.16 µM and a TGI (MOLT-4 leukemia) greater than 100 µM. For the same compound, the GI50 (SK-MEL-2 melanoma) was greater than 21.2 µM and the TGI (SK-MEL-2 melanoma) was greater than 100 µM.
With `O=[N+]([O-])c1cccc(-c2ncc(-c3ccc(Cl)cc3Cl)[nH]2)c1` the GI50 (HCT-116 colon) was 2.21 µM, the TGI (HCT-116 colon) was 5.95 µM and the GI50 (A549 NSCLC) was 22 µM. The TGI (A549 NSCLC) was greater than 56.9 µM, the GI50 (SF-539 CNS) was 15.4 µM and the TGI (SF-539 CNS) was 29.3 µM. It also gave a GI50 (ACHN renal) of 7.48 µM, a TGI (ACHN renal) of 18.3 µM and a GI50 (EKVX NSCLC) of 2.15 µM. For the same compound, the TGI (EKVX NSCLC) was 6.81 µM, the GI50 (NCI-H522 lung) was 10.3 µM and the TGI (NCI-H522 lung) was greater than 27.2 µM. It also gave a GI50 (UACC-62 melanoma) of 7.63 µM, a TGI (UACC-62 melanoma) of 20.6 µM and a GI50 (RXF 393 renal) of 2.25 µM. It also gave a TGI (RXF 393 renal) of 6 µM, a GI50 (MOLT-4 leukemia) of 2.49 µM and a TGI (MOLT-4 leukemia) of 6.34 µM. It also gave a GI50 (SK-MEL-2 melanoma) of 16.2 µM and a TGI (SK-MEL-2 melanoma) of 41.3 µM.
For `COC(=O)C(=O)C(C(=O)C(=O)Nc1ccccc1C(N)=O)c1nc2ccc(C(=O)c3ccccc3)cc2[nH]c1=O` (stereo not given), the TGI (HCT-116 colon) was greater than 100 µM, the TGI (A549 NSCLC) was greater than 100 µM and the TGI (SF-539 CNS) was greater than 100 µM. It also gave a TGI (ACHN renal) greater than 100 µM, a TGI (EKVX NSCLC) greater than 100 µM and a TGI (NCI-H522 lung) of 93.8 µM. For the same compound, the TGI (UACC-62 melanoma) was 65.4 µM, the TGI (RXF 393 renal) was greater than 100 µM and the TGI (MOLT-4 leukemia) was greater than 100 µM. For the same compound, the TGI (SK-MEL-2 melanoma) was greater than 100 µM.
`CCCCCCN(CCCCCC)CC(O)c1cccc2ccc(Cl)cc12` (stereo not given) was tested, and the GI50 (HCT-116 colon) was 3.09 µM, the TGI (HCT-116 colon) was 14.2 µM and the GI50 (A549 NSCLC) was 12.2 µM. It also gave a TGI (A549 NSCLC) of 26.4 µM, a GI50 (SF-539 CNS) of 1.58 µM and a TGI (SF-539 CNS) of 4.95 µM. For the same compound, the GI50 (ACHN renal) was 5.89 µM, the TGI (ACHN renal) was 18.8 µM and the GI50 (EKVX NSCLC) was 10.5 µM. It also gave a TGI (EKVX NSCLC) of 25.5 µM, a GI50 (NCI-H522 lung) of 7.94 µM and a TGI (NCI-H522 lung) of 23 µM. It also gave a GI50 (UACC-62 melanoma) of 8.11 µM, a TGI (UACC-62 melanoma) of 21.2 µM and a GI50 (RXF 393 renal) of 2.16 µM. For the same compound, the TGI (RXF 393 renal) was 7.71 µM, the GI50 (MOLT-4 leukemia) was 7.81 µM and the TGI (MOLT-4 leukemia) was 26.1 µM. It also gave a GI50 (SK-MEL-2 melanoma) of 10.2 µM and a TGI (SK-MEL-2 melanoma) of 24.6 µM.
In the case of `Cc1ns/c(=N\C(=S)N(C)C)n1C`, the TGI (HCT-116 colon) was greater than 100 µM, the TGI (A549 NSCLC) was greater than 100 µM and the TGI (SF-539 CNS) was greater than 100 µM. It also gave a TGI (ACHN renal) greater than 100 µM, a TGI (EKVX NSCLC) greater than 100 µM and a TGI (NCI-H522 lung) greater than 100 µM. It also gave a TGI (UACC-62 melanoma) greater than 100 µM, a TGI (RXF 393 renal) greater than 100 µM and a TGI (MOLT-4 leukemia) greater than 100 µM. For the same compound, the TGI (SK-MEL-2 melanoma) was greater than 100 µM.
